Test system: plasma active GLP-1
Test: In vivo plasma active GLP-1 level-increasing action after oral administration
Parameters: species or system mice
Conditions: 10 mg/kg orally; for Plasma active GLP-1 level (relative value to control group as 100), Average value: male C57/BL6J mice, blood after 30 minutes, 0.5% CMC-Na group = 100; for Significant difference (p < 0.05) vs control group, plasma active GLP-1 level: mice, 30 minutes, Student's t-test
Procedure: In the Test Examples below, data were represented as average value±standard error. In Test Examples 1, 2, and 3, a Student's t-test was used for a statistical test, and in other Test Examples, one-way ANOVA was carried out for dispersion analysis followed by a multiple comparison test by using a Dunnet's test. […] All of these analyses were carried out by using an SPSS for Windows release 17.0 (manufactured by SPSS Inc.).
Among the cyclic dipeptides, cyclic dipeptides for which an in vitro GLP-1 secretion-accelerating action was found and highly lipid-soluble cyclic dipeptides were used in the following experiment. Seven-week-old male C57/BL6J mice were purchased from CLEA Japan, Inc. for use, and they were subjected to an experiment after 1 week of a habituation period. Each animal was grown in an animal room with an air conditioning system (temperature: 23.5±1.0° C., humidity: 55±10 RH %, air ventilation: 12 to 15 times/hour, illumination: from 7:00 to 19:00/day).
After the habituation period, the mice were subjected to 5.5 hours of food deprivation and 2 hours of water deprivation. Thereafter, a cyclic dipeptide dissolved or suspended in a 0.5% CMC-Na aqueous solution in 10 mg/kg was orally administered to each mouse forcibly. After 30 minutes, the blood was collected from the abdominal vena cava under anesthesia, and 1 μL of heparin sodium and 1 μL of 10 mM Sitagliptin phosphate were added to each collected blood, which was then subjected to centrifugation at 8000 rpm for 10 minutes to recover the plasma, and the plasma active GLP-1 level was measured by using the ELISA kit. In the analysis, the active GLP-1 level for a group administered with 0.5% CMC-Na aqueous solution was defined as 100, and relative values thereto were used.
In each Table, cyclic dipeptides for which an in vivo plasma active GLP-1 level-increasing action was found and was not found are listed.

CC(C)C1NC(=O)C(Cc2ccc(O)cc2)NC1=O (stereo not drawn) [compound 88]
Plasma active GLP-1 level (relative value to control group as 100), Average value (Experiment 7): 385 | Significant difference (p < 0.05) vs control group, plasma active GLP-1 level (Experiment 7): Yes

CCC(C)C1NC(=O)C(CCCCN)NC1=O (stereo not drawn) [compound 150]
Plasma active GLP-1 level (relative value to control group as 100), Average value (Experiment 10): 282 | Significant difference (p < 0.05) vs control group, plasma active GLP-1 level (Experiment 10): Yes

O=C(O)CC1NC(=O)C(Cc2ccc(O)cc2)NC1=O (stereo not drawn) [compound 91]
Plasma active GLP-1 level (relative value to control group as 100), Average value (Experiment 7): 181 | Significant difference (p < 0.05) vs control group, plasma active GLP-1 level (Experiment 7): No

CC(C)CC1NC(=O)C(CC(C)C)NC1=O (stereo not drawn) [compound 15]
Plasma active GLP-1 level (relative value to control group as 100), Average value (Experiment 4): 95 | Significant difference (p < 0.05) vs control group, plasma active GLP-1 level (Experiment 4): No

NC(=O)CCC1NC(=O)C(Cc2c[nH]c3ccccc23)NC1=O (stereo not drawn) [compound 82]
Plasma active GLP-1 level (relative value to control group as 100), Average value (Experiment 6): 90 | Significant difference (p < 0.05) vs control group, plasma active GLP-1 level (Experiment 6): No

O=C1NC(CS)C(=O)NC1CO (stereo not drawn) [compound 180]
Plasma active GLP-1 level (relative value to control group as 100), Average value (Experiment 10): 259 | Significant difference (p < 0.05) vs control group, plasma active GLP-1 level (Experiment 10): Yes

CSCCC1NC(=O)CNC1=O (stereo not drawn) [compound 127]
Plasma active GLP-1 level (relative value to control group as 100), Average value (Experiment 9): 124 | Significant difference (p < 0.05) vs control group, plasma active GLP-1 level (Experiment 9): Yes

O=C1NC(Cc2ccc(O)cc2)C(=O)NC1Cc1ccc(O)cc1 (stereo not drawn) [compound 49]
Plasma active GLP-1 level (relative value to control group as 100), Average value (Experiment 5): 100 | Significant difference (p < 0.05) vs control group, plasma active GLP-1 level (Experiment 5): No

CC(C)C1NC(=O)C(C(C)C)NC1=O (stereo not drawn) [compound 11]
Plasma active GLP-1 level (relative value to control group as 100), Average value (Experiment 4): 100 | Significant difference (p < 0.05) vs control group, plasma active GLP-1 level (Experiment 4): No

CC(C)CC1NC(=O)C(Cc2c[nH]c3ccccc23)NC1=O (stereo not drawn) [compound 39]
Plasma active GLP-1 level (relative value to control group as 100), Average value (Experiment 3): 229 | Significant difference (p < 0.05) vs control group, plasma active GLP-1 level (Experiment 3): Yes

CCC(C)C1NC(=O)C(CO)NC1=O (stereo not drawn) [compound 133]
Plasma active GLP-1 level (relative value to control group as 100), Average value (Experiment 9): 133 | Significant difference (p < 0.05) vs control group, plasma active GLP-1 level (Experiment 9): Yes

CC(C)C1NC(=O)C(Cc2c[nH]c3ccccc23)NC1=O (stereo not drawn) [compound 61]
Plasma active GLP-1 level (relative value to control group as 100), Average value (Experiment 3): 117 | Significant difference (p < 0.05) vs control group, plasma active GLP-1 level (Experiment 3): No

CCC(C)C1NC(=O)C(C(C)O)NC1=O (stereo not drawn) [compound 161]
Plasma active GLP-1 level (relative value to control group as 100), Average value (Experiment 10): 282 | Significant difference (p < 0.05) vs control group, plasma active GLP-1 level (Experiment 10): Yes

CC(O)C1NC(=O)C(Cc2c[nH]c3ccccc23)NC1=O (stereo not drawn) [compound 79]
Plasma active GLP-1 level (relative value to control group as 100), Average value (Experiment 6): 100 | Significant difference (p < 0.05) vs control group, plasma active GLP-1 level (Experiment 6): No

CSCCC1NC(=O)C(C)NC1=O (stereo not drawn) [compound 125]
Plasma active GLP-1 level (relative value to control group as 100), Average value (Experiment 9): 133

CC(C)CC1NC(=O)C(Cc2ccccc2)NC1=O (stereo not drawn) [compound 16]
Plasma active GLP-1 level (relative value to control group as 100), Average value (Experiment 4): 105 | Significant difference (p < 0.05) vs control group, plasma active GLP-1 level (Experiment 4): No

O=C1NC(Cc2ccc(O)cc2)C(=O)NC1CO (stereo not drawn) [compound 29]
Plasma active GLP-1 level (relative value to control group as 100), Average value (Experiment 4): 95 | Significant difference (p < 0.05) vs control group, plasma active GLP-1 level (Experiment 4): No

O=C1NC(Cc2ccccc2)C(=O)NC1Cc1ccccc1 (stereo not drawn) [compound 17]
Plasma active GLP-1 level (relative value to control group as 100), Average value (Experiment 3): 203 | Significant difference (p < 0.05) vs control group, plasma active GLP-1 level (Experiment 3): Yes

O=C(O)CC1NC(=O)C(Cc2ccccc2)NC1=O (stereo not drawn) [compound 33]
Plasma active GLP-1 level (relative value to control group as 100), Average value (Experiment 4): 90 | Significant difference (p < 0.05) vs control group, plasma active GLP-1 level (Experiment 4): No

CSCCC1NC(=O)C(C(C)O)NC1=O (stereo not drawn) [compound 169]
Plasma active GLP-1 level (relative value to control group as 100), Average value (Experiment 10): 282 | Significant difference (p < 0.05) vs control group, plasma active GLP-1 level (Experiment 10): Yes

O=C1NC(Cc2c[nH]c3ccccc23)C(=O)NC1Cc1ccc(O)cc1 (stereo not drawn) [compound 22]
Plasma active GLP-1 level (relative value to control group as 100), Average value (Experiment 3): 203 | Significant difference (p < 0.05) vs control group, plasma active GLP-1 level (Experiment 3): Yes

CC(C)C1NC(=O)C(CC(N)=O)NC1=O (stereo not drawn) [compound 141]
Plasma active GLP-1 level (relative value to control group as 100), Average value (Experiment 10): 191 | Significant difference (p < 0.05) vs control group, plasma active GLP-1 level (Experiment 10): Yes

CCC(C)C1NC(=O)C(C(C)CC)NC1=O (stereo not drawn) [compound 14]
Plasma active GLP-1 level (relative value to control group as 100), Average value (Experiment 4): 105 | Significant difference (p < 0.05) vs control group, plasma active GLP-1 level (Experiment 4): No

CCC(C)C1NC(=O)C(CC(=O)O)NC1=O (stereo not drawn) [compound 162]
Plasma active GLP-1 level (relative value to control group as 100), Average value (Experiment 10): 259 | Significant difference (p < 0.05) vs control group, plasma active GLP-1 level (Experiment 10): Yes

CC(C)C1NC(=O)CNC1=O (stereo not drawn) [compound 155]
Plasma active GLP-1 level (relative value to control group as 100), Average value (Experiment 10): 55 | Significant difference (p < 0.05) vs control group, plasma active GLP-1 level (Experiment 10): No

CCC(C)C1NC(=O)C(Cc2cnc[nH]2)NC1=O (stereo not drawn) [compound 148]
Plasma active GLP-1 level (relative value to control group as 100), Average value (Experiment 10): 259 | Significant difference (p < 0.05) vs control group, plasma active GLP-1 level (Experiment 10): Yes

CCC(C)C1NC(=O)C(CC(N)=O)NC1=O (stereo not drawn) [compound 163]
Plasma active GLP-1 level (relative value to control group as 100), Average value (Experiment 10): 327 | Significant difference (p < 0.05) vs control group, plasma active GLP-1 level (Experiment 10): Yes

O=C(O)CCC1NC(=O)C(Cc2ccc(O)cc2)NC1=O (stereo not drawn) [compound 87]
Plasma active GLP-1 level (relative value to control group as 100), Average value (Experiment 7): 141 | Significant difference (p < 0.05) vs control group, plasma active GLP-1 level (Experiment 7): No

O=C1CNC(=O)C(Cc2ccccc2)N1 (stereo not drawn) [compound 8]
Plasma active GLP-1 level (relative value to control group as 100), Average value (Experiment 4): 85 | Significant difference (p < 0.05) vs control group, plasma active GLP-1 level (Experiment 4): No

O=C1NC(Cc2ccc(O)cc2)C(=O)N2CCCC12 (stereo not drawn) [compound 30]
Plasma active GLP-1 level (relative value to control group as 100), Average value (Experiment 4): 95 | Significant difference (p < 0.05) vs control group, plasma active GLP-1 level (Experiment 4): No

O=C1NC(Cc2c[nH]c3ccccc23)C(=O)NC1Cc1c[nH]c2ccccc12 (stereo not drawn) [compound 75]
Plasma active GLP-1 level (relative value to control group as 100), Average value (Experiment 3): 229 | Significant difference (p < 0.05) vs control group, plasma active GLP-1 level (Experiment 3): Yes

O=C1NC(Cc2c[nH]cn2)C(=O)NC1Cc1ccccc1 (stereo not drawn) [compound 38]
Plasma active GLP-1 level (relative value to control group as 100), Average value (Experiment 3): 264 | Significant difference (p < 0.05) vs control group, plasma active GLP-1 level (Experiment 3): Yes

CC(C)CC1NC(=O)C(Cc2c[nH]cn2)NC1=O (stereo not drawn) [compound 103]
Plasma active GLP-1 level (relative value to control group as 100), Average value (Experiment 8): 94 | Significant difference (p < 0.05) vs control group, plasma active GLP-1 level (Experiment 8): No

CSCCC1NC(=O)C(CC(C)C)NC1=O (stereo not drawn) [compound 72]
Plasma active GLP-1 level (relative value to control group as 100), Average value (Experiment 6): 90 | Significant difference (p < 0.05) vs control group, plasma active GLP-1 level (Experiment 6): No

NC(=O)CCC1NC(=O)C(Cc2ccc(O)cc2)NC1=O (stereo not drawn) [compound 93]
Plasma active GLP-1 level (relative value to control group as 100), Average value (Experiment 7): 344 | Significant difference (p < 0.05) vs control group, plasma active GLP-1 level (Experiment 7): Yes

CC(C)CC1NC(=O)C(C)NC1=O (stereo not drawn) [compound 44]
Plasma active GLP-1 level (relative value to control group as 100), Average value (Experiment 3): 255 | Significant difference (p < 0.05) vs control group, plasma active GLP-1 level (Experiment 3): Yes

CC(O)C1NC(=O)C(Cc2ccc(O)cc2)NC1=O (stereo not drawn) [compound 90]
Plasma active GLP-1 level (relative value to control group as 100), Average value (Experiment 7): 466 | Significant difference (p < 0.05) vs control group, plasma active GLP-1 level (Experiment 7): Yes

NC(=O)CC1NC(=O)C(Cc2ccc(O)cc2)NC1=O (stereo not drawn) [compound 92]
Plasma active GLP-1 level (relative value to control group as 100), Average value (Experiment 7): 181 | Significant difference (p < 0.05) vs control group, plasma active GLP-1 level (Experiment 7): No

— US20170114030A1, “COMPOSITION WITH HIGH CONTENT OF CYCLIC DIPEPTIDE” (SUNTORY HOLDINGS LIMITED, priority 2014, published 2017)
